Assay results published in PubChem BioAssay AID2060498 (Molecular Pharmacology Branch, DTP, NCI, 2025).

Tested on: 171881-019-R-J1-PDC tumor spheroids, viability
Test: Anticancer human tumor 171881-019-R-J1-PDC patient-derived invasive breast carcinoma cell line growth inhibition [GQUAD]
Conditions: spheroids with HUVEC and MSC; for IC50: curve of first compound; for viability, T/C: stronger effect = lower value
Excerpt: DNA G-quadruplex Stabilizer Agents in Combinations in Complex Spheroids
A high-throughput screen of multi-cell type tumor spheroids was designed to identify active combinations of DNA G-quadruplex stabilizer agents and targeted small molecules. Complex spheroids include a stromal component modeled by human endothelial cells (HUVEC) and fibroblasts modeled by human mesenchymal stem cells (MSCs). The concentration ranges selected for each drug and investigational agent were based upon clinically achievable concentrations if the clinical Cmax of the agent was known.
Compounds. The drugs and investigational agents: pidnarulex (CX-5461; NSC782164), APTO-253 (NSC789042), BRACO-19 (NSC847499), peposertib (NSC802822), ceralasertib (NSC780249), elimusertib (NSC800525), camonsertib (NSC841442), AZD-1390 (NSC803789), olaparib (NSC753686), talazoparib (NSC767125), ART-558 (NSC835418), sotorasib (NSC818433), MRTX-1133 (NSC836407), SN-38 (NSC673596), topotecan (NSC609699), etoposide (NSC141540), doxorubicin (NSC123127), gemcitabine (NSC613327), 5-fluorouracil (NSC19893), paclitaxel (NSC125973), vemurafenib (NSC761431), panobinostat (NSC761190), R-306465 (JNJ-16241199; NSC773264), adavosertib (NSC754352), TP-3654 (NSC805149), carboplatin (NSC241240), KSQ-4279 (NSC840948), and staurosporine (NSC755774) were obtained from the National Cancer Institute (NCI) Developmental Therapeutics Program Chemical Repository (34). The FDA-approved anticancer drug set is available from the NCI Developmental Therapeutics Program. […] The stock solutions were prepared in dimethyl sulfoxide (DMSO, Sigma-Aldrich, St. Louis, MO, cat. D2650) at 800-fold the tested concentration and stored at -70 degrees C prior to their use. All drugs and investigational agents were tested over a range starting from a high concentration at or near the clinical Cmax and decreasing in half-log increments. If the clinical Cmax for an agent had not been determined, the highest concentration tested was 10 microM.
2.3 Cell Culture. All cells were maintained in an incubator at 37 degrees C and 5% CO2 with 95% humidity. The PDC lines were cultured according to standard operating procedures established by the NCI PDMR. All PDCs were thawed and cultured in Matrigel-coated flasks prepared with a working solution of 1X Ham's F-12 nutrient mix, without supplementation (Invitrogen, cat. 11765054), 100 U/mL penicillin-streptomycin (Invitrogen, cat. 15140122), and 2.5% Matrigel (Corning Inc., cat. 354248) for the first three passages. The 857933-349-R-J2-PDC line was cultured in 6C/Colon 1B media, which includes advanced DMEM/F-12 (Thermo Fisher Scientific, cat. 12634028), 10 mM HEPES (Thermo Fisher Scientific, cat. 15630080), 1X GlutaMAX supplement (Thermo Fisher Scientific, cat. 35050061), 0.1 mg/mL primocin (InvivoGen, cat. ant-pm-2), 10% defined fetal bovine serum, heat inactivated (HyClone Laboratories Inc., cat. SH30070.03HI), 50% L-WRN conditioned media (ATCC, cat. CRL-3276), 1.25 mM N-Acetyl-L-cysteine (Sigma-Aldrich, cat. A9165), 10 mM nicotinamide (Sigma-Aldrich, cat. N0636), 1X B-27 supplement (Thermo Fisher Scientific, cat. 17504044), 1X N-2 supplement (Thermo Fisher Scientific, cat. 17502048), 10 microM Y-27632 dihydrochloride (Tocris Bioscience, cat. 1254), and 50 ng/mL human EGF recombinant protein (Thermo Fisher Scientific, cat. PHG0311). The 485176-168-R4-J1-PDC line was cultured in Panc media, which includes all 6C/Colon 1B media components plus 100 ng/mL human FGF-10 (Thermo Fisher Scientific, cat. 100-26), 500 nM SB-431542 (Selleckchem, cat. S1067), and gastrin (Tocris, cat. 3006).
[…]

[1] = second compound 0.0316 µM, first compound 0.0316 µM
[2] = second compound 0.0316 µM, first compound 0.316 µM
[3] = second compound 0.1 µM, first compound 0.0316 µM
[4] = second compound 0.1 µM, first compound 0.316 µM
[5] = second compound 0.316 µM, first compound 0.0316 µM
[6] = second compound 0.316 µM, first compound 0.316 µM
[7] = second compound 1 µM, first compound 0.0316 µM
[8] = second compound 1 µM, first compound 0.316 µM
[9] = second compound 3.16 µM, first compound 0.0316 µM
[10] = second compound 3.16 µM, first compound 0.316 µM
[11] = second compound 10 µM, first compound 0.0316 µM
[12] = second compound 10 µM, first compound 0.316 µM
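Also: spheroids exposed to compounds for 7 days.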
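For viability, T/C in this document: 100% = DMSO vehicle control viability.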

Structure (SMILES): Cn1ncnc1[C@H]1c2n[nH]c(=O)c3cc(F)cc(c23)N[C@@H]1c1ccc(F)cc1 + Cc1cnc(CNC(=O)c2c(=O)c3ccc(N4CCCN(C)CC4)nc3n3c2sc2ccccc23)cn1
- IC50 (second compound 0.0316 µM): > 0.316 µM
- IC50 (second compound 0.1 µM): > 0.316 µM
- IC50 (second compound 0.316 µM): > 0.316 µM
- IC50 (second compound 1 µM): > 0.316 µM
- IC50 (second compound 3.16 µM): > 0.316 µM
- IC50 (second compound 10 µM): > 0.316 µM
- viability, T/C (second compound 0.0316 µM, first compound 0.000999 µM): 94.5%
- viability, T/C (second compound 0.0316 µM, first compound 0.00316 µM): 86.1%
- viability, T/C (second compound 0.0316 µM, first compound 0.00999 µM): 95.2%
- viability, T/C [1]: 87.2%
- viability, T/C (second compound 0.0316 µM, first compound 0.0999 µM): 79.1%
- viability, T/C [2]: 73.6%
- viability, T/C (second compound 0.1 µM, first compound 0.000999 µM): 82.2%
- viability, T/C (second compound 0.1 µM, first compound 0.00316 µM): 83.2%
- viability, T/C (second compound 0.1 µM, first compound 0.00999 µM): 82.4%
- viability, T/C [3]: 76%
- viability, T/C (second compound 0.1 µM, first compound 0.0999 µM): 63.3%
- viability, T/C [4]: 59.9%
- viability, T/C (second compound 0.316 µM, first compound 0.000999 µM): 73.7%
- viability, T/C (second compound 0.316 µM, first compound 0.00316 µM): 74.3%
- viability, T/C (second compound 0.316 µM, first compound 0.00999 µM): 67.5%
- viability, T/C [5]: 63.5%
- viability, T/C (second compound 0.316 µM, first compound 0.0999 µM): 64.4%
- viability, T/C [6]: 65.1%
- viability, T/C (second compound 1 µM, first compound 0.000999 µM): 68%
- viability, T/C (second compound 1 µM, first compound 0.00316 µM): 59.8%
- viability, T/C (second compound 1 µM, first compound 0.00999 µM): 70.4%
- viability, T/C [7]: 63.5%
- viability, T/C (second compound 1 µM, first compound 0.0999 µM): 63.5%
- viability, T/C [8]: 61.9%
- viability, T/C (second compound 3.16 µM, first compound 0.000999 µM): 61.3%
- viability, T/C (second compound 3.16 µM, first compound 0.00316 µM): 60.1%
- viability, T/C (second compound 3.16 µM, first compound 0.00999 µM): 61.2%
- viability, T/C [9]: 64.7%
- viability, T/C (second compound 3.16 µM, first compound 0.0999 µM): 65.1%
- viability, T/C [10]: 59.1%
- viability, T/C (second compound 10 µM, first compound 0.000999 µM): 58.6%
- viability, T/C (second compound 10 µM, first compound 0.00316 µM): 63%
- viability, T/C (second compound 10 µM, first compound 0.00999 µM): 60.4%
- viability, T/C [11]: 59.9%
- viability, T/C (second compound 10 µM, first compound 0.0999 µM): 65.9%
- viability, T/C [12]: 60.4%

Structure (SMILES): CC1COCCN1c1cc(C2(S(C)(=N)=O)CC2)nc(-c2ccnc3[nH]ccc23)n1 (centres undefined) + Cc1[nH]c2ccc(F)cc2c1-c1nc2c3cccnc3c3ncccc3c2[nH]1
- IC50 (second compound 0.0316 µM): 1.17 µM
- IC50 (second compound 0.1 µM): 1.13 µM
- IC50 (second compound 0.316 µM): 1.13 µM
- IC50 (second compound 1 µM): 0.749 µM
- IC50 (second compound 3.16 µM): < 0.0316 µM
- IC50 (second compound 10 µM): < 0.0316 µM
- viability, T/C [1]: 97.5%
- viability, T/C (second compound 0.0316 µM, first compound 0.1 µM): 97%
- viability, T/C [2]: 87.4%
- viability, T/C (second compound 0.0316 µM, first compound 1 µM): 55.4%
- viability, T/C (second compound 0.0316 µM, first compound 3.16 µM): 18.6%
- viability, T/C (second compound 0.0316 µM, first compound 10 µM): 9.09%
- viability, T/C [3]: 103%
- viability, T/C (second compound 0.1 µM, first compound 0.1 µM): 100%
- viability, T/C [4]: 87.7%
- viability, T/C (second compound 0.1 µM, first compound 1 µM): 53.6%
- viability, T/C (second compound 0.1 µM, first compound 3.16 µM): 21.1%
- viability, T/C (second compound 0.1 µM, first compound 10 µM): 10.5%
- viability, T/C [5]: 97.2%
- viability, T/C (second compound 0.316 µM, first compound 0.1 µM): 75.4%
- viability, T/C [6]: 86.2%
- viability, T/C (second compound 0.316 µM, first compound 1 µM): 51.6%
- viability, T/C (second compound 0.316 µM, first compound 3.16 µM): 21.9%
- viability, T/C (second compound 0.316 µM, first compound 10 µM): 10.2%
- viability, T/C [7]: 78.2%
- viability, T/C (second compound 1 µM, first compound 0.1 µM): 76.6%
- viability, T/C [8]: 75.6%
- viability, T/C (second compound 1 µM, first compound 1 µM): 41%
- viability, T/C (second compound 1 µM, first compound 3.16 µM): 18.9%
- viability, T/C (second compound 1 µM, first compound 10 µM): 9.88%
- viability, T/C [9]: 21.5%
- viability, T/C (second compound 3.16 µM, first compound 0.1 µM): 15.3%
- viability, T/C [10]: 17.2%
- viability, T/C (second compound 3.16 µM, first compound 1 µM): 13.9%
- viability, T/C (second compound 3.16 µM, first compound 3.16 µM): 10.2%
- viability, T/C (second compound 3.16 µM, first compound 10 µM): 6.81%
- viability, T/C [11]: 46%
- viability, T/C (second compound 10 µM, first compound 0.1 µM): 49.4%
- viability, T/C [12]: 36.5%
- viability, T/C (second compound 10 µM, first compound 1 µM): 22%
- viability, T/C (second compound 10 µM, first compound 3.16 µM): 14.5%
- viability, T/C (second compound 10 µM, first compound 10 µM): 8.3%
